{"source": "patent US6337074B1", "about": "“Anti-herpesviral agent” (priority 1996, dated 2002)", "key": {"POL/UL8 interaction [1]": {"target": "T1, POL/UL8 interaction (Human herpesvirus 1, UniProt P04293)", "T1 construct": "made in house; host or cells: Spodoptera frugiperda (Sf) cells infected with recombinant baculoviruses AcUL30 and AcUL8", "T1 sequence (P04293 whole entry)": "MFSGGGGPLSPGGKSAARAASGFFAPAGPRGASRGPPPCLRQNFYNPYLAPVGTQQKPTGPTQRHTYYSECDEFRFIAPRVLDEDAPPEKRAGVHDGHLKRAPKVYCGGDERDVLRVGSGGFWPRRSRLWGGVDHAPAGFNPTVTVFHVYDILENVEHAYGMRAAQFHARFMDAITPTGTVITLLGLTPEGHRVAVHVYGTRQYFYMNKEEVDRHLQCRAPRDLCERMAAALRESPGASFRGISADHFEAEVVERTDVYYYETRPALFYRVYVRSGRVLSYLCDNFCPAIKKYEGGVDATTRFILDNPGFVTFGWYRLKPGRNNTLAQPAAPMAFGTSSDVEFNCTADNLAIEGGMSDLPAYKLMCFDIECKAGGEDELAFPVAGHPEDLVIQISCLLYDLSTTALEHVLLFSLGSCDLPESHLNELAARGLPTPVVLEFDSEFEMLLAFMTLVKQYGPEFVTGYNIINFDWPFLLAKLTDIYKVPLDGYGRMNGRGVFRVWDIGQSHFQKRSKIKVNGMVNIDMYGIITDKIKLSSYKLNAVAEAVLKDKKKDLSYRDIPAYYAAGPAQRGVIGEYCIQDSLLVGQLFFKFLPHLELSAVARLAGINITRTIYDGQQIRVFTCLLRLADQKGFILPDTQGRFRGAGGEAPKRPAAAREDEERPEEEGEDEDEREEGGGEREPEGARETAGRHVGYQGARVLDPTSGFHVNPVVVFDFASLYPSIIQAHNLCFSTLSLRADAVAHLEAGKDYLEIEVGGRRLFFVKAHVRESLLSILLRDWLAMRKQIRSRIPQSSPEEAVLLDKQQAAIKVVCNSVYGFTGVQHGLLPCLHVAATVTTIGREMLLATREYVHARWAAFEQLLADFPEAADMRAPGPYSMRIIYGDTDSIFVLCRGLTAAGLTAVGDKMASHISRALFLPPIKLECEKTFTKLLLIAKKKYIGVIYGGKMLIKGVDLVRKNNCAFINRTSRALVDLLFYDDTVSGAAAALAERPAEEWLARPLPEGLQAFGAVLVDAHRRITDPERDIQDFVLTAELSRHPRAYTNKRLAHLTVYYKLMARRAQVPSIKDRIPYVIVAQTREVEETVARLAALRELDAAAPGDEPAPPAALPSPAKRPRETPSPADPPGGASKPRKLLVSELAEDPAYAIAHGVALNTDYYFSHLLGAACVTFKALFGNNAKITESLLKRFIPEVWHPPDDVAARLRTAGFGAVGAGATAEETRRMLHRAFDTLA", "assay": "biochemical", "assay_type": "binding, HSV-1", "conditions": "for Inhibition of the POL/UL8 interaction (in words): FIG. 6", "excerpt": "POL/UL8 interaction assays. ELISA assays, similar to that described for POL/UL42 (Marsden et al., 1994) were established with purified POL and UL8 proteins. POL was extracted from Sf cells infected with recombinant baculovirus AcUL30 and purified as described by Gottlieb et al. (1990) with minor modifications (Marsden et al., 1994). UL8 protein was extracted from Sf cells infected with recombinant baculovirus AcUL8 and purified as described by Parry et al., (1993) but substituting phenyl-Sepharose by hydroxylapatite chromatography (Dodson and Lehman, 1991). Both proteins were diluted in PBS to the required concentrations. For the first assay, microtiter wells were coated overnight with 0.02 μg of purified POL and blocked with 100 μl of 2% BSA in PBS for 1 h at 37° C. After blocking, the plates were washed extensively with PBS containing 0.3% Tween 20 and blotted dry. Then 50 μl of purified UL8, at the concentrations indicated in the text, were added to each well and incubated for 1 h at 37° C. […] The wells were again extensively washed and bound MAb was detected with 50 μl/well of HRP-conjugated goat anti-mouse IgG (Sigma) diluted 1:500 in PBS containing 2% FCS and chromogenic substrate ABTS. For the second assay, POL and UL8 proteins were added in the reverse order. Microtitre wells were coated overnight with 0.02 to 0.04 μg of purified UL8 protein and bound POL was detected with a POL-specific MAB 13185 (Marsden et al., 1996) diluted 1:100. Other aspects of the two assays were identical. MAbs, diluted in PBS plus 2% fetal calf serum, and peptides, diluted in 100 mM Tris-HCl (pH 8.0) plus 0.1% Tween 20, were added to the interaction assay as described in the text.\nInhibition of the POL/UL8 interaction by UL8 peptides. […] Peptides were dissolved in 100 mM Tris-HCl (pH 8.0) plus 0.1% Tween 20 at different concentrations and incubated with POL for 15 min to allow the peptides to bind to POL. The mixtures were then added to microtiter wells coated with UL8 and the amount of POL bound was determined after 1 h. […] The concentration of each peptide required to reduce POL binding by 50% (the IC50 value) was determined in at least 3, and on average 5, independent experiments.\nThe jumbled peptide, 7J, was made by linking residues from alternately the N- and C-termini of peptide 7. Thus, if the order of the 20 residues in peptide 7 is represented as 1, 2, 3, . . . 18, 19, 20, that in 7J was 1, 20, 2, 19, . . . […].\nWe next investigated whether the preincubation step was necessary."}, "UL54/UL102 interaction": {"target": "T2, UL54/UL102 interaction (Human cytomegalovirus, UniProt P08546)", "T2 construct": "made in house; host or cells: Spodoptera frugiperda (Sf) cells infected with recombinant baculoviruses AcUL54 and AcUL102", "T2 sequence (P08546 whole entry)": "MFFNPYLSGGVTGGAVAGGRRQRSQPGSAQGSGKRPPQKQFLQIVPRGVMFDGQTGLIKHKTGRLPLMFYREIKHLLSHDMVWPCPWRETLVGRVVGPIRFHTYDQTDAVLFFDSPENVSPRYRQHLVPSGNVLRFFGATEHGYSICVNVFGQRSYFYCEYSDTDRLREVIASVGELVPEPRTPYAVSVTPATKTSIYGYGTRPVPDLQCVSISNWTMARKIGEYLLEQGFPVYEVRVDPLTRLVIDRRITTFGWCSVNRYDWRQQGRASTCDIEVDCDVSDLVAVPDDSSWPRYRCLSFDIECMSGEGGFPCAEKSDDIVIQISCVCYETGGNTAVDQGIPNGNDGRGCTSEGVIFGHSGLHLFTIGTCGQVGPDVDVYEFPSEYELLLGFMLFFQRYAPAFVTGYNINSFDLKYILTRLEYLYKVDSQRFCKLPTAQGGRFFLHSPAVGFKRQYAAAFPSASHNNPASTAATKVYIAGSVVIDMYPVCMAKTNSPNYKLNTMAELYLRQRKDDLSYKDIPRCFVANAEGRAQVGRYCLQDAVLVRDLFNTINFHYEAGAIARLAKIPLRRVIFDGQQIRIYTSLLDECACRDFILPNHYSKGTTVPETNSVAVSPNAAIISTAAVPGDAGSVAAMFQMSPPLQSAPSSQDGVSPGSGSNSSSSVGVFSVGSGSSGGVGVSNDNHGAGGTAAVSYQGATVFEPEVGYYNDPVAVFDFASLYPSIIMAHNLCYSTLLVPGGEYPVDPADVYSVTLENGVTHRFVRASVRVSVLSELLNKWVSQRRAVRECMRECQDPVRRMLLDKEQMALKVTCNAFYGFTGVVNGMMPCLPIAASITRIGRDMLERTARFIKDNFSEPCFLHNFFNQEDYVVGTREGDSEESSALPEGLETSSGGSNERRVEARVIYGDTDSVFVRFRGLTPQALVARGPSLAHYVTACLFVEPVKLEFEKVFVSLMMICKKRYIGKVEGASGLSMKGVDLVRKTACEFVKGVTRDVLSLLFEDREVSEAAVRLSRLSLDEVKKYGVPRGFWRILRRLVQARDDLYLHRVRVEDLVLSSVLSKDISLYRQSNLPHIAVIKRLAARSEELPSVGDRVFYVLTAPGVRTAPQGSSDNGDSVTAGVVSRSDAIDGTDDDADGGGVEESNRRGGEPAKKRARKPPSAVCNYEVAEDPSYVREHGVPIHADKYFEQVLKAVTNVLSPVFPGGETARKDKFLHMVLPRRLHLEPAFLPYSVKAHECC", "assay": "UL54/UL102 interaction ELISA, inhibition by UL102 peptides", "assay_type": "binding, HCMV", "experimental": "UL54/UL102 interaction assays. ELISA assays, similar to those described for HSV-1 POL/UL8 (see Example 1 above) were established with purified HCMV UL54 and UL102 proteins. […] The wells were again extensively washed and bound antibody was detected with 50 μl/well of HRP-conjugated protein A (Sigma) diluted 1:500 in PBS containing 2% FCS. After further washes, chromogenic substrate ABTS was added.\nInhibition of the UL54/UL102 interaction by UL102 peptides. […] To do this, the peptides listed in Table 4 were tested for their ability to block the interaction of HCMV UL102 with HCMV UL54. […] The amount of UL54 bound was determined after 1 h by measuring the absorbance at 405 nm as described. The absorbance in the absence of any peptide, 1.061±0.033, was determined from six wells. The background absorbance in the absence of any UL54, 0.240±0.025, was also determined from six wells and was subtracted from all values. […] The concentration of each peptide required to reduce UL54-binding by 50% (the IC50 value) was determined and is listed in Table 4."}, "[2]": {"assay": "Solubility of peptides in assay buffer", "assay_type": "physicochemical", "conditions": "100 mM Tris-HCl (pH 8.0) plus 0.1% Tween 20"}, "POL/UL8 interaction [3]": {"target": "T1, POL/UL8 interaction", "assay": "biochemical", "assay_type": "binding, HSV-1", "conditions": "IC50 value for inhibition of the POL/UL8 interaction, FIG. 8; no pre-incubation, peptide added a few seconds after POL"}, "[4]": {"conditions": "IC50 value for inhibition of the POL/UL8 interaction, experiment shown in FIG. 7, 15 min pre-incubation with POL"}}, "note": "Where two headings read alike, the source gives them in different places. No end group written: not given here.", "data": [{"compound": "CC[C@H](C)[C@H](NC(=O)[C@@H]1CCCN1C(=O)[C@H](CCC(=O)O)NC(=O)[C@H](CCCCN)NC(=O)[C@H](CCC(=O)O)NC(=O)[C@H](CC(C)C)NC(=O)[C@H](CCC(N)=O)NC(=O)[C@H](Cc1ccc(O)cc1)NC(=O)[C@H](Cc1c[nH]c2ccccc12)NC(=O)[C@H](CC(C)C)NC(=O)[C@H](CCCCN)NC(=O)[C@@H](N)C(C)C)C(=O)N[C@H](C(=O)NCC(=O)N[C@@H](C)C(=O)O)C(C)C", "note": "[Peptide RT85, reference compound]", "values": [{"measurement": "IC50", "setting": "POL/UL8 interaction [1]", "result": "> 250", "unit": "µM"}, {"measurement": "IC50", "setting": "UL54/UL102 interaction", "result": "> 200", "unit": "µM"}]}, {"compound": "EILREIELVFTGVLA [Peptide 8]", "values": [{"measurement": "IC50", "setting": "POL/UL8 interaction [1]", "result": "> 250", "unit": "µM"}]}, {"compound": "IELVFTGVLAGVWGEGGKFV [Peptide 7]", "values": [{"measurement": "IC50", "setting": "POL/UL8 interaction [1]", "result": "2.3 ± 2.2", "unit": "µM"}, {"measurement": "Inhibition of the POL/UL8 interaction (in words)", "setting": "POL/UL8 interaction [1]", "result": "markedly inhibitory"}, {"measurement": "IC50", "setting": "POL/UL8 interaction [1]; IC50 value for inhibition of the POL/UL8 interaction, FIG. 8, peptide pre-incubated with POL for 15 min", "result": "~1", "unit": "µM"}, {"measurement": "IC50", "setting": "POL/UL8 interaction [1]; [4]", "result": "~1", "unit": "µM"}, {"measurement": "Solubility (in words)", "setting": "[2]", "result": "limited solubility"}, {"measurement": "IC50", "setting": "POL/UL8 interaction [3]", "result": "~1", "unit": "µM"}]}, {"compound": "IVEFLKVGFGTEGGVWLVAG [Peptide 7J, reference compound]", "values": [{"measurement": "IC50", "setting": "POL/UL8 interaction [1]", "result": "> 20", "unit": "µM"}, {"measurement": "IC50", "setting": "POL/UL8 interaction [1]; [4]", "result": "> 20", "unit": "µM"}]}, {"compound": "TGVLAGVWGEGGKFV [Peptide 6]", "values": [{"measurement": "IC50", "setting": "POL/UL8 interaction [1]", "result": "> 250", "unit": "µM"}]}, {"compound": "TGVLAGVWGEGGKFVYPFDDKMSFLFA [Peptide 4]", "values": [{"measurement": "IC50", "setting": "POL/UL8 interaction [1]", "result": "> 250", "unit": "µM"}]}, {"compound": "VFTGVLAGVWGEGGKFVYPFDDKMSFLFA [Peptide 5]", "values": [{"measurement": "IC50", "setting": "POL/UL8 interaction [1]", "result": "66 ± 22", "unit": "µM"}, {"measurement": "Inhibition of the POL/UL8 interaction (in words)", "setting": "POL/UL8 interaction [1]", "result": "markedly inhibitory"}, {"measurement": "Solubility (in words)", "setting": "[2]", "result": "limited solubility"}]}, {"compound": "VLAGVWGEGGKFVYPFDDKMSFLFA [Peptide 3]", "values": [{"measurement": "IC50", "setting": "POL/UL8 interaction [1]", "result": "> 250", "unit": "µM"}]}]}
